Where two headings read alike, the source gives them in different places.
Key:
Assay in all cases: 3H-TdR (3H-thymidine) incorporation assay at 72 hr
CEM/dCK- = assay type: cell-based; conditions: for IC50: deoxycytidine kinase-deficient CCRF-CEM; for Factor* (Resistance Factor = Ratio of dCK- on Wild-type CCRF-CEM): ratio of IC50 CEM/dCK- to CCRF-CEM, 24 h
Method: (§1) Table of IC50 Values (μM) for Controls
(§2) Exposition of 24 hr to drug, wash, incubated for another 48 hr (total of 72 hr assay)
(§3) (3H-Thymidine Incorporation Assay)

CCRF-CEM = assay type: cell-based; conditions: 3H-TdR incorporation at 72 hr
Method: as §1, §2, §3

H-460 = assay type: cell-based, Human; conditions: 3H-TdR incorporation at 72 hr
SF-268 = assay type: cell-based, Human; conditions: 3H-TdR incorporation at 72 hr
MCF-7 = assay type: cell-based, Human; conditions: 3H-TdR incorporation at 72 hr
[1] = Homo sapiens, CCRF-CEM, read-out: IC50 CEM/dCK- 24 h, 24 h drug exposure, wash, another 48 hr
[2] = Homo sapiens, CCRF-CEM, read-out: IC50 CCRF-CEM 24 h, 24 h drug exposure, wash, another 48 hr
[3] = Homo sapiens, NCI-H460, read-out: IC50 H-460 24 h, 24 h drug exposure, wash, another 48 hr
[4] = Homo sapiens, SF-268, read-out: IC50 SF-268 24 h, 24 h drug exposure, wash, another 48 hr
[5] = Homo sapiens, MCF7, read-out: IC50 MCF-7 24 h, 24 h drug exposure, wash, another 48 hr
[6] = Homo sapiens, NCI-H460, read-out: IC50 H-460 (72 h), 72 h exposure
[7] = Homo sapiens, SF-268, read-out: IC50 SF-268 (72 h), 72 h exposure
[8] = Homo sapiens, MCF7, read-out: IC50 MCF-7 (72 h), 72 h exposure

SMILES	IC50 (CEM/dCK-; [1]) [nM]	Factor* (Resistance Factor = Ratio of dCK- on Wild-type CCRF-CEM) (CEM/dCK-)	IC50 (CCRF-CEM; [2]) [nM]	IC50 (H-460; [3]) [nM]	IC50 (SF-268; [4]) [nM]	IC50 (MCF-7; [5]) [nM]	IC50 (H-460; [6]) [nM]	IC50 (SF-268; [7]) [nM]	IC50 (MCF-7; [8]) [nM]	IC50 (CEM/dCK-; read-out: IC50 CEM/dCK- 24 h, 24 h drug exposure, wash, another 48 hr) [nM]	IC50 (CCRF-CEM; read-out: IC50 CCRF-CEM 24 h, 24 h drug exposure, wash, another 48 hr) [nM]	IC50 (H-460; read-out: IC50 H-460 24 h, 24 h drug exposure, wash, another 48 hr) [nM]	IC50 (SF-268; read-out: IC50 SF-268 24 h, 24 h drug exposure, wash, another 48 hr) [nM]	IC50 (MCF-7; read-out: IC50 MCF-7 24 h, 24 h drug exposure, wash, another 48 hr) [nM]
COC1(OC[C@H]2OC[C@@H](n3ccc(N)nc3=O)O2)CCCCC1 [Compound 113, 4-AMINO-1-[2-(1- METHOXY- CYCLOHEXYLOXYMETHYL)- [1,3]DIOXOLAN-4-YL]-1H- PYRIMIDIN-2-ONE]	> 100000	>1667	60	240	1100	480								
O=C(Nc1ccn([C@@H]2CO[C@H](COC(=O)c3ccccc3)O2)c(=O)n1)OCc1ccccc1 [Compound 153, BENZOIC ACID 4-(4- BENZYLOXYCARBONYLAMINO- 2-OXO-2H-PYRIMIDIN-1- YL)-[1,3]DIOXOLAN-2- YLMETHYL ESTER]	> 100000	>476	210	46000	59000	39000								
COc1ccc(C(OC[C@H]2OC[C@@H](n3ccc(N)nc3=O)O2)(c2ccccc2)c2ccccc2)cc1 [Compound 134, 4-AMINO-1-{2-[(4- METHOXY-PHENYL)- DIPHENYL- METHOXYMETHYL]- [1,3]DIOXOLAN-4-YL}-1H- PYRIMIDIN-2-ONE]	20000	3	7000	12000	3000	11000								
CN(C)/C=N/c1ccn([C@@H]2CO[C@H](COC(=O)C(C)(C)c3ccccc3)O2)c(=O)n1 [Compound 142, (2S,4S)-2-(2″- DIMETHYLPHENYLACETOXY)M ETHYL-4-(4′-N,N- DIMETHYLAMINOMETHYLENE- CYTOSTN-1,-YL)-1,3- DIOXOLANE]	46000	6,389	7.2	38	130	29								
CC(C)(C)OC(=O)N(CCCCC(=O)Nc1ccn([C@@H]2CO[C@H](COC(=O)CCCCN(Cc3ccccc3)C(=O)OC(C)(C)C)O2)c(=O)n1)Cc1ccccc1 [Compound 114, 5-(BENZYL-TERT- BUTOXYCARBONYL-AMINO)- PENTANOIC ACID 4-{4-[5- (BENZYL-TERT- BUTOXYCARBONYL-AMINO)- PENTANOYLAMINO]-2-OXO- 2H!PYRIMIDIN-1-YL}- [1,3]DIOXOLAN-2- YLMETHYL ESTER]	8000	500	16	66	41	17								
CCC(C)(C)OC(C)OC[C@H]1OC[C@@H](n2ccc(N)nc2=O)O1 (mixture of isomers) [Compound 117, 4-AMINO-1-{2-[1-(1,1- DIMETHYL-PROPOXY)- ETHOXYMETHYL]- [1,3]DIOXOLAN-4-YL}-1H- PYRIMIDIN-2-ONE]	89000	494	180	460	680	460								
CCCCC(CC)C(=O)OC[C@H]1OC[C@@H](n2ccc(/N=C/N(C)C)nc2=O)O1 (stereo partly drawn) [Compound 65, (2S,4S)-2-(2″-ETHYL- HEXANOICOXYMETHYL)-4- (4′-N,N- DIMETHYLAMINOMETHYLENE- CYTOSIN-1′-YL)-1,3- DIOXOLANE]	26000	6,667	3.9	11	33	12								
Nc1ccn([C@@H]2CO[C@H](COC3CCCCO3)O2)c(=O)n1 (stereo in doubt) [Compound 41, 4-AMINO-1-[2- (TETRAHYDRO-PYRAN-2- YLOXYMETHYL)- [1,3]DIOXOLAN-4-YL]-1H- PYRIMIDIN-2-ONE]	> 100000	5	21000	40000	> 100000	91000								
Nc1ccn([C@@H]2CO[C@H](COC(=S)Oc3ccccc3)O2)c(=O)n1 [Compound 147, THIOCARBONIC ACID O- [4(S)-(4′-AMINO-2′-OXO- 2H-PYRIMIDIN-1′-YL)- [1,3]DIOXOLAN-2(S)- YLMETHYL] ESTER O- PHENYL ESTER]	> 100000	>4000	25	60	17	110								
CC(C)(C)OC(=O)N(CCCCC(C)(C)C(=O)Nc1ccn([C@@H]2CO[C@H](CO)O2)c(=O)n1)Cc1ccccc1 [Compound 125, Benzyl-{5-[1-(2-hydroxymethyl-[1,3]dioxolan-4-yl)-2-oxo-1,2-dihydro-pyrimidin-4-ylcarbamoyl]-5-methyl-hexyl}-carbamic acid tert-butyl ester]	7000	97	72	240	600	16								
COC(=O)CCCC(=O)Nc1ccn([C@@H]2CO[C@H](CO)O2)c(=O)n1 [Compound 81, 4-[1-(2-HYDROXYMETHYL- [1,3]DIOXOLAN-4-YL)-2- OXO-1,2-DIHYDRO- PYRIMIDIN-4- YLCARBAMOYL]-BUTYRIC ACID METHYL ESTER]	> 100000	83	1200	3100	7900	2200								
CC(C)C(=O)OC[C@H]1OC[C@@H](n2ccc(N)nc2=O)O1 [Compound 275, ISOBUTYRIC ACID 4-(4- AMINO-2-OXO-2H- PYRIMIDIN-1-YL)- [1,3]DIOXOLAN-2-YL METHYL ESTER]	51600	9,214	5.6				1.2	13	4.4					
CC(C)CC(=O)OC[C@H]1OC[C@@H](n2ccc(N)nc2=O)O1 [Compound 278, 3-METHYL-BUTYRIC ACID 4-(4-AMINO-2-OXO-2H- PYRIMIDIN-1-YL)- [1,3]DIOXOLAN-2-YL METHYL ESTER]	71200		28	79	93	38	2.4	13	23	91000				
O=c1nc(NC2Sc3ccccc3S2)ccn1[C@@H]1CO[C@H](CO)O1 [Compound 136, 4-(BENZO[1,3]DITHIOL-2- YLAMINO)-1-(2- HYDROXYMETHYL- [1,3]DIOXOLAN-4-YL)- 1H!PYRIMIDIN-2-ONE]	> 100000	>25	4000	9000	3000	12000								
Nc1ccn([C@@H]2CO[C@H](COC(=O)CCCCCNCc3ccccc3)O2)c(=O)n1 [Compound 84, 6-Benzylamino-hexanoic acid 4-(4-amino-2-oxo-2H-pyrimidin-1-yl)-[1,3]dioxolan-2-ylmethyl ester]		5,000									12	14	360	9.4
